This note sets out measurements from article PMC6882899 (Scientific Reports, 2019).

For this assay, the target named is zebrafish WT α1BB-AR (Danio rerio, UniProt Q5U3D9). Put plainly: cell-based.

Molecules are shown by their SMILES.

zebrafish WT α1BB-AR, sequence (Q5U3D9 1-481): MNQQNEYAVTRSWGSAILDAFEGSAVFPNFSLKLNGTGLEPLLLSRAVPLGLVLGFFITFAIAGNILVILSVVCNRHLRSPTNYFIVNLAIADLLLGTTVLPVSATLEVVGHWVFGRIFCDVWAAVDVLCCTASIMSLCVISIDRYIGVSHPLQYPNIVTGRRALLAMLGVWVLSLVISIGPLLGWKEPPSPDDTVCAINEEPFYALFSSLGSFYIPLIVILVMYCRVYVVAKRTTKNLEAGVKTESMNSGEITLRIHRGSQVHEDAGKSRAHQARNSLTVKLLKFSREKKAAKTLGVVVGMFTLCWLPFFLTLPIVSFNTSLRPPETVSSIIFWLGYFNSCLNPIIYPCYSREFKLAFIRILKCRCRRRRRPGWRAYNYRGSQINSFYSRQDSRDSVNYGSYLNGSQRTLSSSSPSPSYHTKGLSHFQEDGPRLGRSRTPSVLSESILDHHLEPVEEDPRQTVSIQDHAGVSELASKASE

Consider `NC[C@H](O)c1ccc(O)c(O)c1` [NE, norepinephrine], for which the EC50 amounted to 407 ± 45 nM.

What is called EC50 is the midpoint of the concentration-response curve.
